Measured values: patent publication US11672788B2, “Histone deacetylase inhibitors for immunomodulation in tumor microenvironment” (GREAT NOVEL THERAPEUTICS BIOTECH & MEDICALS CORPORATION, priority 2020, dated 2023)
Converted amounts (≈) assume the structure as drawn.

Tests used:
SK-BR-3 = assay: In vitro cytotoxicity MTT assay; type: cell-based; conditions: Homo sapiens, 72 h, IC50 ± SD
Method: (§1) Six different cell lines were used, including human breast cancer cell line MDA-MB-231 (6×10^3), MDA-MB-453 (2.4×10^4), SK-BR-3 (6×10^3), human breast epithelial cell line M10 (6×10^3), human gastric carcinoma NCI-N87 (2.4×10^4), and human colorectal adenocarcinoma SW48 (2.4×10^4), and seeded in a 96 well plate. Cell lines were obtained from Bioresource Collection and Research Center, BCRC, Taiwan. […] After 72 h, MTT assay (Cayman™) was used to determine the cellular viability.

MDA-MB-231 = assay: In vitro cytotoxicity MTT assay; type: cell-based, human; conditions: Homo sapiens, MDA-MB-231, 72 h, IC50 ± SD
Method: as §1

SW48 = assay: In vitro cytotoxicity MTT assay; type: cell-based, human; conditions: Homo sapiens, SW48, 72 h, IC50 ± SD
Method: as §1

MDA-MB-453 = assay: In vitro cytotoxicity MTT assay; type: cell-based, human; conditions: Homo sapiens, MDA-MB-453, 72 h, IC50 ± SD
Method: as §1

M10 = assay: In vitro cytotoxicity MTT assay; type: cell-based, human; conditions: Homo sapiens, M10, 72 h, IC50 ± SD
Method: as §1

HDAC1 = HDAC1 (Homo sapiens (Human), UniProt Q13547); assay: HDACs 1, 2, and 3 enzymatic inhibition (fluorogenic kit, 1 h); type: biochemical; conditions: 37° C.
Method: (§2) HDACs assay was performed according to standard Protocols (Fluorgenic HDACs 1, 2, and 3 assay kit, BPS Bioscience™). […] After 1 h, assay developer was added to the samples and the absorbance was read at fluorogenic wavelength. The relative inhibition to HDACs 1, 2, and 3 activities in each sample was determined.

HDAC3 [1] = target: T1, HDAC3 (Homo sapiens (Human), UniProt O15379); assay: as above; type: biochemical; conditions: 37° C.
Method: as §2

HDAC2 = HDAC2 (Homo sapiens (Human), UniProt Q92769); assay: as above; type: biochemical; conditions: 37° C.
Method: as §2

HDAC3 [2] = target: T1, HDAC3; assay: HDAC3 enzymatic kinetic assay; type: biochemical; conditions: 2 μM; 20 min, 40 min and 60 min
Method: HDAC3 enzymatic kinetic assay was performed according to standard Protocols (Fluorgenic HDAC3 assay kit, BPS Bioscience™). […] After incubation, assay developer was added to the samples and the absorbance was read at fluorogenic wavelength. The relative inhibition to HDAC3 activity in each sample was determined.

Saturation solubility = type: physicochemical; conditions: ddH2O, 25° C., mean ± SD, BDL: Below detection limit
Method: Samples of 5 mg of compounds were added to 5 ml volumetric flasks containing ddH2O and shaken at 100 rpm in an incubator at 25° C. for 90 minutes. The resulting suspension was filtered through a 0.22 μm filter. The concentrations of compounds were determined spectrophotometrically at 256 nm. The saturation solubility of each sample was determined in triplicates and the mean value and standard deviation were reported.

[3] = system: histone H3 acetylation (AcH3) in SW48 cells; assay: Western blot of histone H3 acetylation; type: cell-based, human; conditions: SW48, 24 h, FIG. 12c
Method: Human breast cancer MDA-MB-231 cells and human colorectal adenocarcinoma SW48 cells were analyzed. MDA-MB-231 and SW48 were obtained from Bioresource Collection and Research Center (BCRC, Taiwan). MDA-MB-231 and SW48 were grown at 37° C. under humidified air supplemented without CO2 in Leibovitz's L-15 (cat. #11415114, Thermo Fisher Scientific) containing 10% heat inactivated fetal calf serum (Thermo Scientific), 1× concentration of MycoZap antibiotics (cat. #VZA-2011, Lonza). Cells were treated with GNTbm compounds series, Chidamide or Entinostat for different time periods or at varied doses. Cells were treated with indicated doses for 24 h or cells were treated with indicated doses for different time periods. Cell pellets were dissolved with RIPA buffer (cat. #20-188, Merck) with protease and phosphatase inhibitors (cat. #K272, BioVision) and clarified by centrifugation. Equal amounts of total protein were resolved by SDS-PAGE and transferred to polyvinylidene fluoride membranes (cat. #1620177, BIO-RAD). Blots were incubated with primary antibodies against β-actin (cat. #sc-47778, Santa Cruz Biotechnology), Histone 3ac (cat. #61637, Active Motif), and HRP secondary antibodies anti-rabbit (ab6721, Abcam) and anti-mouse (sc-2005, Santa Cruz). Blots were developed using the ECL Western Blotting Substrate (cat. #sc-2048, Santa Cruz Biotechnology) Image blots were analyzed with the iBright FL1000 (Thermo Fisher Scientific) imaging systems.

SW48 cells [4] = assay: Cell cycle arrest by PI flow cytometry; type: cell-based, human; conditions: for Percentage of Cell Cycle Distribution G0/G1 / Percentage of Cell Cycle Distribution G2/M / Percentage of Cell Cycle Distribution S: 72 h; for Cell cycle arrest: SW48, doses of Table 12
Method: (§3) A PI/RNase staining assay (BD Bioscience™) was performed to reveal the presence of cell cycle arrest and apoptotic cells after treatment with GNTbm compounds, Chidamide and Entinostat. […] After treatment cells were harvested, fixed with 80% ethanol for 24 h, washed with 1×PBS and stained with PI/RNase for 15 min at room temperature. The cells were then analyzed using Flow Cytometer within 1 h.

SW48 cells [5] = assay: Cell apoptosis (sub-G1) by PI flow cytometry; type: cell-based, human; conditions: 72 h; for Induction of apoptosis: SW48, indicated doses (Table 13)
Method: as §3

NCI-N87 = assay: In vitro cytotoxicity MTT assay; type: cell-based; conditions: Homo sapiens, 72 h, IC50 ± SD
Method: as §1

Sequence of HDAC2 (Q92769 whole entry): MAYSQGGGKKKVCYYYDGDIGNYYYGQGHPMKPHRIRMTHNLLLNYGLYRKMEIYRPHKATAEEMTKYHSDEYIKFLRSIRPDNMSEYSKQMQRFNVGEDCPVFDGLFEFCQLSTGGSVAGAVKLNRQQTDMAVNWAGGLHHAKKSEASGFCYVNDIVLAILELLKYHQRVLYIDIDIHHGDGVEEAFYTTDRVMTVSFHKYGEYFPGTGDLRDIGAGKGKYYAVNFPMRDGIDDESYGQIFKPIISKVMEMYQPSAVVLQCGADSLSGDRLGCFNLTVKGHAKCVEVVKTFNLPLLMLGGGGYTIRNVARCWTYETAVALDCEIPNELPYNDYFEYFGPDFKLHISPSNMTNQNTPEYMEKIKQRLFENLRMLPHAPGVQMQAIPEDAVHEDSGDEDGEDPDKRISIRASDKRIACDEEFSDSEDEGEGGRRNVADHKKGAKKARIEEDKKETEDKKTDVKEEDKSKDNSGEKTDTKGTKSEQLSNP
T1 sequence (O15379 whole entry): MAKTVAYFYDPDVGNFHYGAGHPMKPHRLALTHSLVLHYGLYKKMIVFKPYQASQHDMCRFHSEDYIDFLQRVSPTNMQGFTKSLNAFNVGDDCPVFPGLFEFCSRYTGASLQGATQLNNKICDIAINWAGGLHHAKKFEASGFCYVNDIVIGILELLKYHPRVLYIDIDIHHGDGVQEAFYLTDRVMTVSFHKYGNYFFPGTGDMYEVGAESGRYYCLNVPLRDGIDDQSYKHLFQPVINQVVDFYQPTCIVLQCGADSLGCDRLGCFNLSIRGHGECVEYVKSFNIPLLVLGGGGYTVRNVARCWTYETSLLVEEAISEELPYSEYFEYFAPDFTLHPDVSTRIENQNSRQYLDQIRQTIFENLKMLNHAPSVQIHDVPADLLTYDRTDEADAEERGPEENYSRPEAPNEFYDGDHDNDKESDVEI
T1 sequence (Q9Y618 395-489 partner): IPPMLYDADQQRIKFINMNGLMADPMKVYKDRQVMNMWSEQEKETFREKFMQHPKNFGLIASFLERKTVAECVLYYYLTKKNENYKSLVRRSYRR
Sequence of HDAC1 (Q13547 whole entry): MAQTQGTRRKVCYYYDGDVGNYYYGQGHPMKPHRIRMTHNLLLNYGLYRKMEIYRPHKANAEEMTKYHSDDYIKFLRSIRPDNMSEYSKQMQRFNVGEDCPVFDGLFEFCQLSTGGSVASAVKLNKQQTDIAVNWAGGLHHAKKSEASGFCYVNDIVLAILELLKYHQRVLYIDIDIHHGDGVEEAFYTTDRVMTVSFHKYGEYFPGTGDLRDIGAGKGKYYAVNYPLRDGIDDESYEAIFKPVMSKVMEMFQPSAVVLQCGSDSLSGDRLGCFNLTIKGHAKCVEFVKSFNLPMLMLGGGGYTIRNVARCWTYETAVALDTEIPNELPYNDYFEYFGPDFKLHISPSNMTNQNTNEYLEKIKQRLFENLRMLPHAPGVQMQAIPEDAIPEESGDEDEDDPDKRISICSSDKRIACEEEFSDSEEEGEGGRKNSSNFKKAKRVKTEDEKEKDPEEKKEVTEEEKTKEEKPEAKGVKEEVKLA

| SMILES | IC50 (MDA-MB-231) | IC50 (SW48) | IC50 (MDA-MB-453) | IC50 (M10) | IC50 (HDAC1) | IC50 (HDAC3 [1]) | IC50 (HDAC2) | Histone 3 acetylation expression versus Chidamide [3] | Percentage of Cell Cycle Distribution G0/G1 (SW48 cells [4]; SW48, 0.125 μM) | Percentage of Cell Cycle Distribution G2/M (SW48 cells [4]; SW48, 0.125 μM) | Percentage of Cell Cycle Distribution S (SW48 cells [4]; SW48, 0.125 μM) | Percentage of Cell Cycle Distribution G0/G1 (SW48 cells [4]; SW48, 0.5 μM) | Percentage of Cell Cycle Distribution G2/M (SW48 cells [4]; SW48, 0.5 μM) | Percentage of Cell Cycle Distribution S (SW48 cells [4]; SW48, 0.5 μM) | Percentage of Cell Cycle Distribution G0/G1 (SW48 cells [4]; SW48, 1 μM) | Percentage of Cell Cycle Distribution G2/M (SW48 cells [4]; SW48, 1 μM) | Percentage of Cell Cycle Distribution S (SW48 cells [4]; SW48, 1 μM) | Percentage of Cell Cycle Distribution G0/G1 (SW48 cells [4]; SW48, 2 μM) | Percentage of Cell Cycle Distribution G2/M (SW48 cells [4]; SW48, 2 μM) | Percentage of Cell Cycle Distribution S (SW48 cells [4]; SW48, 2 μM) | other results |
| --- | --- | --- | --- | --- | --- | --- | --- | --- | --- | --- | --- | --- | --- | --- | --- | --- | --- | --- | --- | --- | --- |
| Cc1ccc(/C=C/CC(=O)Nc2ccc(C(=O)Nc3ccc(F)cc3N)cn2)cn1 [GNTbm-01, 6-((E)-4-(6-methylpyridin-3-yl)but-3-enamido)-N-(2-amino-4-fluorophenyl)pyridine-3-carboxamide] | 49.8 ± 4.9 µM | > 50000 nM | 20900 ± 4440 nM | 24800 ± 1150 nM | 6770 ± 760 nM | 2750 ± 130 nM | 2680 ± 200 nM | – | – | – | – | – | – | – | – | – | – | – | – | – | IC50 (SK-BR-3): 28.5 ± 1.85 µM |
| Cc1ccc(/C=C/CC(=O)Nc2ccc(C(=O)Nc3ccc(F)cc3N)cc2)cn1 [GNTbm-03, 4-((E)-4-(6-methylpyridin-3-yl)but-3-enamido)-N-(2-amino-4-fluorophenyl)benzamide] | 26.7 ± 5.8 µM | 5260 ± 900 nM | 1810 ± 8 nM | 6100 ± 134 nM | 560 ± 40 nM | 670 ± 60 nM | 510 ± 50 nM | – | – | – | – | – | – | – | – | – | – | – | – | – | IC50 (SK-BR-3): 4.07 ± 0.68 µM; Inhibition of HDAC 3 enzyme activities (kinetics) (HDAC3 [2]): stronger inhibition of HDAC 3 enzyme activities than GNTbm-01; Saturation Solubility (Saturation solubility; 90 minutes): BDL |
| Nc1cc(F)ccc1NC(=O)c1ccc(NC(=O)C/C=C/c2cccnc2)cn1 [GNTbm-04, 5-((E)-4-(pyridin-3-yl)but-3-enamido)-N-(2-amino-4-fluorophenyl)pyridine-2-carboxamide] | 1.64 ± 0.004 µM | 600 ± 90 nM | 1590 ± 3 nM | 1810 ± 60 nM | 380 ± 40 nM | 200 ± 100 nM | 540 ± 7 nM | more potent in inducing the histone 3 acetylation expression in SW48 cells than Chidamide | 56.9% | 25.2% | 17.9% | 63.2% | 19.3% | 17.5% | 67.2% | 18.9% | 13.9% | 70.5% | 18.7% | 10.8% | Cell cycle arrest (SW48 cells [4]): significant induced cell cycle arrest in G0/G1 phase in SW48 cells; Percentages of Cell Apoptosis (SW48 cells [5]; SW48, 0.125 μM): 2.9%; Percentages of Cell Apoptosis (SW48 cells [5]; SW48, 0.5 μM): 10.8%; Percentages of Cell Apoptosis (SW48 cells [5]; SW48, 1 μM): 20.8%; Percentages of Cell Apoptosis (SW48 cells [5]; SW48, 2 μM): 32%; Induction of apoptosis (SW48 cells [5]): potent in inducing apoptosis in SW48 cells; IC50 (NCI-N87): 340 ± 40 nM; solubility at 90 min (Saturation solubility; water, thermodynamic from solid): 7.2 µg/mL (≈ 18.4 µM) |
| Nc1ccccc1NC(=O)c1ccc(NC(=O)C/C=C/c2cccnc2)cc1 [GNTbm-38, 4-((E)-4-(pyridin-3-yl)but-3-enamido)-N-(2-aminophenyl)benzamide] | 3.55 ± 0.45 µM | 1640 ± 5 nM | 1670 ± 10 nM | 1990 ± 60 nM | 690 ± 30 nM | 1200 ± 10 nM | 280 ± 10 nM | more potent in inducing the histone 3 acetylation expression in SW48 cells than Chidamide | 63.3% | 17.4% | 19.3% | 61.8% | 27.8% | 10.4% | 57.7% | 29.8% | 12.5% | 53.9% | 32.5% | 13.6% | Cell cycle arrest (SW48 cells [4]): significantly induced cell cycle arrest in the G2/M phase in SW48 cells; Percentages of Cell Apoptosis (SW48 cells [5]; SW48, 0.125 μM): 8.5%; Percentages of Cell Apoptosis (SW48 cells [5]; SW48, 0.5 μM): 18.3%; Percentages of Cell Apoptosis (SW48 cells [5]; SW48, 1 μM): 24.4%; Percentages of Cell Apoptosis (SW48 cells [5]; SW48, 2 μM): 37.3%; Induction of apoptosis (SW48 cells [5]): potent in inducing apoptosis in SW48 cells; IC50 (NCI-N87): 420 ± 80 nM |
| Nc1cc(F)ccc1NC(=O)c1ccc(NC(=O)C/C=C/c2cccnc2)cc1 [GNTbm-39, 4-((E)-4-(pyridin-3-yl)but-3-enamido)-N-(2-amino-4-fluorophenyl)benzamide] | 2.93 ± 0.45 µM | 1730 ± 10 nM | 1840 ± 20 nM | 1960 ± 20 nM | 3700 ± 40 nM | 890 ± 130 nM | 680 ± 30 nM | more potent in inducing the histone 3 acetylation expression in SW48 cells than Chidamide | 57.2% | 22.3% | 20.5% | 58.8% | 24.7% | 16.5% | 46.5% | 32.8% | 20.7% | 42.3% | 38.9% | 18.8% | Cell cycle arrest (SW48 cells [4]): significantly induced cell cycle arrest in the G2/M phase in SW48 cells; Percentages of Cell Apoptosis (SW48 cells [5]; SW48, 0.125 μM): 9.5%; Percentages of Cell Apoptosis (SW48 cells [5]; SW48, 0.5 μM): 17.8%; Percentages of Cell Apoptosis (SW48 cells [5]; SW48, 1 μM): 25.4%; Percentages of Cell Apoptosis (SW48 cells [5]; SW48, 2 μM): 37.8%; Induction of apoptosis (SW48 cells [5]): potent in inducing apoptosis in SW48 cells; IC50 (NCI-N87): 640 ± 30 nM |
